In patent US20130060020A1, “Compounds useful for treating neurodegenerative disorders” (Satori Pharmaceuticals, Inc., priority 2011, published 2013):
Like-named read-outs stand apart in the source and are kept apart here.

How the values were obtained:
Aβ 42 = assay: % 42 lowering and 40/42 selectivity after dosing in mg/kg (Table 5); format: in vivo
Aβ-42 = Aβ-42 MSD 3-plex ELISA, conditioned media of 2B7 cells; format: cell-based; conditions: Homo sapiens, 5 hours treatment
Protocol: (§1) Assays were conducted to determine the ability of a Compound of Formula I to modulate […], and Aβ-38.
(§2) Plates with capture antibodies were blocked for 1-2 hours at room temperature with 150 μL of the manufactures blocking reagent.
(§3) Cultured 2B7 cells in 96 well plate with 250 μL of media per well until confluent;
(§4) Prepared serial dilutions of compounds in DMSO at 100× the final desired concentration;
(§5) Washed wells with 2B7 cells 1× with 250 μL of media;
(§6) Diluted DMSO stocks 1:100 into media: • Added 250 μL of media containing compounds (1% DMSO) to wells with 2B7 cells for 5 hours at 37° C.
(§7) ELISA Sample Prep: • Diluted conditioned media: 1 part media with 1% DMSO and 1 part blocking buffer; • 150 μL of the 250 μL of conditioned media were used.
(§8) Prepared per manufacturer's protocol (see above). • Seven point standard curve samples were prepared that contained Aβ-42, Aβ-40, and Aβ-38. The highest concentration of Aβ-42 and Aβ-38 was 3,000 pg/mL and the highest concentration of Aβ-40 was 10,000 pg/mL. Subsequent serial dilutions were 1:3 and the final composition of each sample was 1 part blocking buffer and 1 part cell medium containing 1% DMSO.
(§9) Overnight Sample Incubation: • Blocked plates are washed 5× with MSD wash buffer with a plate washer; • […] and blocker G reagent in MSD blocking solution was added; • 25 μL of samples (1 part conditioned media containing 1% DMSO and 1 part MSD blocking buffer) were then added; • Plates were incubated overnight at 4 degrees C. or 2 hours at room temperature.
(§10) Final Wash and Readout: • Washed wells 5× with MSD wash buffer; • Added 150 μL 2×MSD read buffer; • Read with MSD imager.
(§11) Aβ peptide levels for each peptide were calculated from the standard curve using the MSD software provided with the MSD 2400 Imager. Percent vehicle values for each compound dosage were then calculated and fit to a 4 parameter curve generating IC50 values.
(§12) Conditioned media from 2B7 cells (Mayo) was collected after 5 hours of treatment and diluted with 1 volume of Meso Scale Discovery (MSD, Gaithersburg Md.) blocking buffer (1% BSA in MSD wash buffer). For total Aβ measurements, standard-bind, multi-array single spot 96 well MSD ELISA plates were coated with unlabeled 4G8 capture antibody (Covance, Princeton, N.J.) overnight at 4° C. and then blocked with 5% BSA in MSD wash buffer for 1 hour at room temperature with orbital shaking Diluted 2B7 conditioned media were added to the blocked in-house total Aβ MSD plates with SULFO-TAG 6E10 antibody (MSD). For Aβ38, 40 and 42 measurements, diluted 2B7 conditioned media were added to blocked human (6E10) Aβ 3-Plex plates (MSD). Total Aβ and Aβ 3-Plex plates were incubated for 2 hours at room temperature with orbital shaking followed by washing and reading according to the manufacturer's instructions (SECTOR® Imager 2400, MSD). Aβ concentrations were converted to percent vehicle values and used to construct dose response curves which were fitted to […] using GraphPad Prism version 5.00 for Windows, GraphPad Software, San Diego Calif. USA.

Aβ-38 = Aβ-38 MSD 3-plex ELISA, conditioned media of 2B7 cells; format: cell-based; conditions: Homo sapiens, 5 hours treatment, read-out: Aβ 38 IC50
Protocol: as §1, §2, §3, §4, §5, §6, §7, §8, §9, §10, §11, §12

Aβ-40 = Aβ-40 MSD 3-plex ELISA, conditioned media of 2B7 cells; format: cell-based; conditions: Homo sapiens, 5 hours treatment
Protocol: as §1, §2, §3, §4, §5, §6, §7, §8, §9, §10, §11, §12

[1] = inflection of dose response curve, read-out: Aβ 42 DR IC50 Inflection

| Compound | %42 lowering 10 hr (Aβ 42; 150 mg/kg) | %42 lowering 24 hr (Aβ 42; 100 mg/kg) | %42 lowering 24 hr (Aβ 42; 150 mg/kg) | %42 lowering 10 hr (Aβ 42; 100 mg/kg) | IC50 (Aβ-42; [1]) [nM] | IC50 (Aβ-42; read-out: Aβ 42 IC50) [nM] | IC50 (Aβ-38) [nM] | 40/42 selective 10 hr (Aβ 42; 100 mg/kg) | IC50 (Aβ-40; read-out: Aβ 40 IC50) [nM] | IC50 (Aβ-40; inflection of dose response curve, read-out: Aβ 40 DR IC50 Inflection) [nM] |
| --- | --- | --- | --- | --- | --- | --- | --- | --- | --- | --- |
| CCO[C@@H]([C@H]1C[C@@H](C)[C@H]2[C@H](O1)[C@H](O)[C@@]1(C)[C@@H]3CC[C@H]4C(C)(C)[C@@H](O[C@H]5CN(CC6CN(C)C6)CCO5)CC[C@@]45C[C@@]35CC[C@]21C)C(C)(C)O [Compound I-5] | A (% 42 lowering of under 15%) |  |  |  |  |  |  |  |  |  |
| CCO[C@@H]([C@H]1C[C@@H](C)[C@H]2[C@H](O1)[C@H](O)[C@@]1(C)[C@@H]3CC[C@H]4C(C)(C)[C@@H](O[C@H]5CN(C6CN(C(C)C)C6)CCO5)CC[C@@]45C[C@@]35CC[C@]21C)C(C)(C)O [Compound I-6] | C (% 42 lowering of 21-25%) | E^a (% 42 lowering of greater than 31%) |  |  |  |  |  |  |  |  |
| CCO[C@@H]([C@H]1C[C@@H](C)[C@H]2[C@H](O1)[C@H](O)[C@@]1(C)[C@@H]3CC[C@H]4C(C)(C)[C@@H](O[C@H]5CN(C6CN(C7CCC7)C6)CCO5)CC[C@@]45C[C@@]35CC[C@]21C)C(C)(C)O [Compound I-13] | D (% 42 lowering of 26-30%) |  | D (% 42 lowering of 26-30%) |  |  |  |  |  |  |  |
| CCO[C@@H]([C@H]1C[C@@H](C)[C@H]2[C@H](O1)[C@H](O)[C@@]1(C)[C@@H]3CC[C@H]4C(C)(C)[C@@H](O[C@H]5CN(CC6CN(CCOC)C6)CCO5)CC[C@@]45C[C@@]35CC[C@]21C)C(C)(C)O [Compound I-20] |  |  |  | A^a (% 42 lowering of under 15%) |  |  |  |  |  |  |
| CCO[C@@H]([C@H]1C[C@@H](C)[C@H]2[C@H](O1)[C@H](O)[C@@]1(C)[C@@H]3CC[C@H]4C(C)(C)[C@@H](O[C@H]5CN(CC6CN(CC(C)(C)O)C6)CCO5)CC[C@@]45C[C@@]35CC[C@]21C)C(C)(C)O [Compound I-24] |  | C^a (% 42 lowering of 21-25%) |  | A^a (% 42 lowering of under 15%) |  |  |  |  |  |  |
| CCO[C@@H]([C@H]1C[C@@H](C)[C@H]2[C@H](O1)[C@H](O)[C@@]1(C)[C@@H]3CC[C@H]4C(C)(C)[C@@H](O[C@H]5CN(C6CCN(CCOC)CC6)CCO5)CC[C@@]45C[C@@]35CC[C@]21C)C(C)(C)O [Compound I-28] |  |  |  | A^a (% 42 lowering of under 15%) | 100 to 500 | 100 to 500 | 501 to 1000 | F^a (10-15 fold selectivity) |  |  |
| CCO[C@@H]([C@H]1C[C@@H](C)[C@H]2[C@H](O1)[C@H](O)[C@@]1(C)[C@@H]3CC[C@H]4C(C)(C)[C@@H](O[C@H]5CN(C6CCN(C(C)C)CC6)CCO5)CC[C@@]45C[C@@]35CC[C@]21C)C(C)(C)O [Compound I-30] |  |  |  | A^a (% 42 lowering of under 15%) | < 100 | < 100 | 100 to 500 | G^a (16-20 fold selectivity) | 1000 to 5000 |  |
| CCO[C@@H]([C@H]1C[C@@H](C)[C@H]2[C@H](O1)[C@H](O)[C@@]1(C)[C@@H]3CC[C@H]4C(C)(C)[C@@H](O[C@H]5CN(CC6(O)CN(C)C6)CCO5)CC[C@@]45C[C@@]35CC[C@]21C)C(C)(C)O [Compound I-42] |  |  |  |  | < 100 | < 100 | 100 to 500 |  | 501 to 1000 |  |
| CCO[C@@H]([C@H]1C[C@@H](C)[C@H]2[C@H](O1)[C@H](O)[C@@]1(C)[C@@H]3CC[C@H]4C(C)(C)[C@@H](O[C@H]5CN(CC6(O)CN(C7CCC7)C6)CCO5)CC[C@@]45C[C@@]35CC[C@]21C)C(C)(C)O [Compound I-44] |  |  |  |  | < 100 | < 100 | 100 to 500 |  | 1000 to 5000 |  |
| CCO[C@@H]([C@H]1C[C@@H](C)[C@H]2[C@H](O1)[C@H](O)[C@@]1(C)[C@@H]3CC[C@H]4C(C)(C)[C@@H](O[C@H]5CN(CC6(O)CN(C7COC7)C6)CCO5)CC[C@@]45C[C@@]35CC[C@]21C)C(C)(C)O [Compound I-45] |  |  |  |  | 100 to 500 | 100 to 500 | 100 to 500 |  | 1000 to 5000 |  |
| CCO[C@@H]([C@H]1C[C@@H](C)[C@H]2[C@H](O1)[C@H](O)[C@@]1(C)[C@@H]3CC[C@H]4C(C)(C)[C@@H](O[C@H]5CN(CC6(O)CN(CCOC)C6)CCO5)CC[C@@]45C[C@@]35CC[C@]21C)C(C)(C)O [Compound I-46] |  |  |  |  | < 100 | < 100 | 100 to 500 |  | 501 to 1000 |  |
| CCO[C@@H]([C@H]1C[C@@H](C)[C@H]2[C@H](O1)[C@H](O)[C@@]1(C)[C@@H]3CC[C@H]4C(C)(C)[C@@H](O[C@H]5CN(CC6(O)CN(CC(C)(C)O)C6)CCO5)CC[C@@]45C[C@@]35CC[C@]21C)C(C)(C)O [Compound I-47] |  |  |  |  | 100 to 500 | 100 to 500 | 100 to 500 |  | 1000 to 5000 |  |
| CCO[C@@H]([C@H]1C[C@@H](C)[C@H]2[C@H](O1)[C@H](O)[C@@]1(C)[C@@H]3CC[C@H]4C(C)(C)[C@@H](O[C@H]5CN(CCN(C)C)CCO5)CC[C@@]45C[C@@]35CC[C@]21C)C(C)(C)O [Compound I-59] |  |  |  |  | 100 to 500 | 100 to 500 | 501 to 1000 |  | 1000 to 5000 |  |
| CCO[C@@H]([C@H]1C[C@@H](C)[C@H]2[C@H](O1)[C@H](O)[C@@]1(C)[C@@H]3CC[C@H]4C(C)(C)[C@@H](O[C@H]5CN(CCN6CC(OC)C6)CCO5)CC[C@@]45C[C@@]35CC[C@]21C)C(C)(C)O [Compound I-62] |  |  |  |  | 100 to 500 | 100 to 500 | 501 to 1000 |  | 1000 to 5000 |  |
| CCO[C@@H]([C@H]1C[C@@H](C)[C@H]2[C@H](O1)[C@H](O)[C@@]1(C)[C@@H]3CC[C@H]4C(C)(C)[C@@H](O[C@H]5CN(CCN6CC(F)C6)CCO5)CC[C@@]45C[C@@]35CC[C@]21C)C(C)(C)O [Compound I-63] |  |  |  |  | 100 to 500 | 100 to 500 | 501 to 1000 |  | 1000 to 5000 | 1000 to 5000 |
| CCO[C@@H]([C@H]1C[C@@H](C)[C@H]2[C@H](O1)[C@H](O)[C@@]1(C)[C@@H]3CC[C@H]4C(C)(C)[C@@H](O[C@H]5CN(CC6(O)CN(CCO)C6)CCO5)CC[C@@]45C[C@@]35CC[C@]21C)C(C)(C)O [Compound I-69] |  |  |  |  | < 100 | < 100 | 100 to 500 |  | 501 to 1000 |  |
| CCO[C@@H]([C@H]1C[C@@H](C)[C@H]2[C@H](O1)[C@H](O)[C@@]1(C)[C@@H]3CC[C@H]4C(C)(C)[C@@H](O[C@H]5CN(CC6CN(C(CO)CO)C6)CCO5)CC[C@@]45C[C@@]35CC[C@]21C)C(C)(C)O [Compound I-73] |  |  |  |  | 100 to 500 | 100 to 500 | 100 to 500 |  | 1000 to 5000 |  |
| CCO[C@@H]([C@H]1C[C@@H](C)[C@H]2[C@H](O1)[C@H](O)[C@@]1(C)[C@@H]3CC[C@H]4C(C)(C)[C@@H](O[C@H]5CN(C6CN(C(CO)CO)C6)CCO5)CC[C@@]45C[C@@]35CC[C@]21C)C(C)(C)O [Compound I-74] |  |  |  |  | 100 to 500 | 100 to 500 | 100 to 500 |  | 1000 to 5000 |  |
